Patent US4000297A, “N-p-chlorobenzoyl tryptophane, salts and compositions thereof” (priority 1971, dated 1976)
Counter-ions that a name gives are not always drawn. Like-named read-outs stand apart in the source and are kept apart here.

Key:
Assay type in all cases: in vivo
[1] = Acute toxicity (DL50) in the mouse; settings: iv (Table 1); for LD50: in vivo, read-out: DL50 value
Description: *1 DL50 in the mouse mg/kg iv.
Examples of differences between toxicity (DL50 in
the mouse) by intravenous administration and oral
administration in mg/kg. Variation in therapeutic

gastric secretion [2] = experiment: Anti-secretive activity in the rat with lig. pylorus, iv; settings: for ED50: read-out: Activity A: anti-secretive activity ED50
gastric secretion [3] = experiment: Anti-secretive activity in the rat by gastric stimulus, oral; settings: oral (Table 1); for ED50: read-out: Activity B: anti-secretive activity ED50
Protocol: *3 Anti-secretive activity in the rat by gastric stimulus, ED50 mg/k

gastric secretion [4] = experiment: Comparison of antisecretive activity, rats with tied pylorus, oral aqueous suspension; settings: oral
Protocol: (*)The antisecretive activity is defined as the dose in mg/kg of body
weight of the animal, which reduces the gastric secretion by 50%. The
evaluation is effected by considering the decrease in quantity of secrete
gastric juice as compared with controls. Rats of an average weight of 200
± 20 grams are employed of which the lower part of the stomach at the
level of the pylorus is tied to collect the gastric juice during the
indicated periods. The preparations are administered orally in the form o

[5] = rat with lig. pylorus, iv (Table 1)

| Compound | LD50 ([1]; iv) [mg/kg] | ED50 (gastric secretion [2]; Rattus norvegicus, iv) [mg/kg] | ED50 (gastric secretion [3]) [mg/kg] | ED50 (gastric secretion [2]; [5]) [mg/kg] | also measured |
| --- | --- | --- | --- | --- | --- |
| O=C(N[C@@H](Cc1c[nH]c2ccccc12)C(=O)O)OCc1ccc(C(F)(F)F)cc1 [Ex.11 (CR515), N-p-trifluoromethyl-carbobenzoxy-L-tryptophane] | 175 | 112 | 92 |  |  |
| O=C(N[C@H](Cc1c[nH]c2ccccc12)C(=O)O)c1ccccc1Cl [Ex.52 (CR637), N-o-chlorobenzoyl-D-tryptophane] |  |  | 390 | 440 | LD50 [1]: 1530 mg/kg |
| CCOC(=O)c1ccc(NC(=O)[C@H](Cc2c[nH]c3ccccc23)NC(=O)OCc2ccccc2)cc1 [Ex.33 (CR401), Ethyl-N-carbobenzoxy-L-tryptophyl-p-aminobenzoate] | 1000 |  | 320 | 470 |  |
| O=C(O)Cc1ccc(NC(=O)[C@H](Cc2c[nH]c3ccccc23)NC(=O)OCc2ccccc2)cc1 [Ex.44 (CR435), N-carbobenzoxy-L-tryptophyl-p-aminophenylacetic acid] | 980 |  | 210 | 370 |  |
| N-p-bromobenzoyl-L-tryptophyl-phenylacetic acid [Ex.45 (CR511)] |  |  |  |  | DL50 value [1]: 690 mg/kg; Activity A: anti-secretive activity ED50 (gastric secretion [2]; [5]): 246 mg/kg; Activity B: anti-secretive activity ED50 (gastric secretion [3]): 281 mg/k |
| O=C(N[C@@H](Cc1c[nH]c2ccccc12)C(=O)O)OCc1ccc(Cl)cc1Cl [Ex.13 (CR470), N-(2,4-dichloro)-carbobenzoxy-L-tryptophane] | 170 |  | 97 | 130 |  |
| CN(C)CCOC(=O)[C@H](Cc1c[nH]c2ccccc12)NC(=O)OCc1ccc(Cl)cc1 [Ex.48 (CR583), Dimethylaminoester of N-p-chlorocarbobenzoxy-L-trytophane hydrochloride] | 210 |  | 121 | 170 |  |
| O=C(NC(Cc1c[nH]c2ccccc12)C(=O)O)c1ccccc1Cl (racemic) [Ex.51 (CR618), N-o-chlorobenzoyl-DL-tryptophane] |  |  | 320 | 345 | LD50 [1]: 1400 mg/kg |
| CCc1ccc(COC(=O)N[C@@H](Cc2c[nH]c3ccccc23)C(=O)O)cc1 [Ex.10 (CR500), N-p-ethyl-carbobenzoxy-L-tryptophane] | 158 | 142 | 117 |  |  |
| Cc1ccc(C(=O)NC(Cc2c[nH]c3ccccc23)C(=O)O)cc1 (racemic) [Ex.23 (CR555), N-p-toluyl-DL-tryptophane] |  | 204 | 172 |  | LD50 [1]: 340 mg/kg |
| O=C(N[C@@H](Cc1c[nH]c2ccccc12)C(=O)Nc1ccc(C(=O)OCc2ccccc2)cc1)OCc1ccccc1 [Ex.36 (CR430), Benzyl-N-carbobenzoxy-L-tryptophyl-p-aminobenzoate] | 1000 |  | 520 | 690 |  |
| O=C(Cc1ccc(NC(=O)[C@H](Cc2c[nH]c3ccccc23)NC(=O)OCc2ccccc2)cc1)OCc1ccccc1 [Ex.39 (CR419), Benzyl-N-carbobenzoxy-L-tryptophyl-p-aminophenylacetate] | 1000 |  | 350 | 430 |  |
| O=C(N[C@@H](Cc1c[nH]c2ccccc12)C(=O)Nc1ccc(C(=O)Oc2ccccc2)cc1)OCc1ccccc1 [Ex.35 (CR411), Phenyl-N-carbobenzoxy-L-tryptophyl-p-aminobenzoate] | 1000 |  | 460 | 610 |  |
| O=C(N[C@@H](Cc1c[nH]c2ccccc12)C(=O)O)OCc1c(Cl)cccc1Cl [Ex.14 (CR495), N-(2,6-dichloro)-carbobenzoxy-L-tryptophane] | 268 |  | 108 | 132 |  |
| O=C(N[C@@H](Cc1c[nH]c2ccccc12)C(=O)O)OCc1cccc(Cl)c1Cl [Ex.15 (CR499), N-(2,3-dichloro)-carbobenzoxy-L-tryptophane] | 175 |  | 60 | 100 |  |
| N#Cc1ccc(COC(=O)N[C@@H](Cc2c[nH]c3ccccc23)C(=O)O)cc1 [Ex. 8 (CR496), N-p-cyano-carbobenzoxy-L-tryptophane] | 1070 | 202 | 340 |  |  |
| Cc1ccc(COC(=O)N[C@@H](Cc2c[nH]c3ccccc23)C(=O)O)cc1Cl [Ex.17 (CR497), N-(3-chloro-4-methyl)-carbobenzoxy-L-tryptophane] | 190 | 231 | 196 |  |  |
| O=C(N[C@@H](Cc1c[nH]c2ccccc12)C(=O)Nc1ccc(C(=O)Oc2ccc(Cl)cc2Cl)cc1)OCc1ccccc1 [Ex.34 (CR432), 2,4-Dichlorophenyl-N-carbobenzoxy-L-tryptophyl-p-aminobenzoate] | 1000 |  | 310 | 370 |  |
| N-p-chlorobenzoyl-L-tryptophyl-phenylacetic acid [Ex.46 (CR589)] |  |  |  |  | DL50 value [1]: 295 mg/kg; Activity A: anti-secretive activity ED50 (gastric secretion [2]; [5]): 189 mg/kg; Activity B: anti-secretive activity ED50 (gastric secretion [3]): 120 mg/k |
| CCOC(=O)c1ccc(NC(=O)[C@H](Cc2c[nH]c3ccccc23)NC(=O)c2ccccc2)cc1 [Ex.37 (CR402), Ethyl-N-benzoyl-L-tryptophyl-p-aminobenzoate] |  |  | 460 | 310 | LD50 [1]: 1000 mg/kg |
| O=C(N[C@@H](Cc1c[nH]c2ccccc12)C(=O)O)OCc1ccc(I)cc1 [Ex. 7 (CR490), N-p-iodo-carbobenzoxy-L-tryptophane] | 166 | 75 | 94 |  |  |
| O=C(N[C@@H](Cc1c[nH]c2ccccc12)C(=O)O)OCc1cccc(Cl)c1 [Ex. 2 (CR527), N-m-chloro-carbobenzoxy-L-tryptophane] | 450 | 176 | 147 |  |  |
| O=C(NC(Cc1c[nH]c2ccccc12)C(=O)O)OCc1ccc(Cl)cc1 (racemic) [Ex. 4 (CR463), N-p-chloro-carbobenzoxy-DL-tryptophane] | 217 | 161 | 130 |  |  |
| COC(=O)Cc1ccc(NC(=O)[C@H](Cc2c[nH]c3ccccc23)NC(=O)c2ccccc2)cc1 [Ex.40 (CR418), Methyl-N-benzoyl-L-tryptophyl-p-aminophenylacetate] |  |  | 180 | 290 | LD50 [1]: 1000 mg/kg |
| Cc1ccc(C(=O)N[C@H](Cc2c[nH]c3ccccc23)C(=O)O)cc1 [Ex.22 (CR556), N-p-toluyl-D-tryptophane] |  | 354 | 190 |  | LD50 [1]: 365 mg/kg |
| O=C(N[C@@H](Cc1c[nH]c2ccccc12)C(=O)O)c1ccc([N+](=O)[O-])cc1 [Ex.29 (CR502), N-p-nitro-benzoyl-L-tryptophane. C2 H5 OH] |  |  | 270 | 339 | LD50 [1]: 806 mg/kg |
| COc1ccc(C(=O)N[C@@H](Cc2c[nH]c3ccccc23)C(=O)O)cc1 [Ex.26 (CR507), N-p-methoxy-benzoyl-L-tryptophane] |  |  | 494 | 437 | LD50 [1]: 1000 mg/kg |
| O=C(N[C@@H](Cc1c[nH]c2ccccc12)C(=O)Nc1ccc(C(=O)O)cc1)OCc1ccccc1 [Ex.43 (CR422), N-Carbobenzoxy-L-tryptophyl-p-aminobenzoic acid] | 460 |  | 180 | 321 |  |
| Nc1ccc(C(=O)N[C@@H](Cc2c[nH]c3ccccc23)C(=O)O)cc1 [CR 504 - Calcium salt] |  |  |  |  | Antisecretive activity (dose which reduces the gastric secretion by 50%) (gastric secretion [4]; 2.5 hrs, 150 min): 1480 mg/kg; Antisecretive activity (dose which reduces the gastric secretion by 50%) (gastric secretion [4]; 5 hrs, 300 min): 1865 mg/kg; Antisecretive activity (dose which reduces the gastric secretion by 50%) (gastric secretion [4]; 10 hrs, 600 min): > 2000 mg/kg |
